A short description of experiment [1]: Cytotoxicity against human NCI-N87 cells assessed as decrease in cell viability after 4 days by MTS assay. It counts as functional, cell-based. As to conditions: NCI-N87, 96 h. In general terms: Tetrazolium assays rely on reduction of a dye to a coloured formazan, in cell work by metabolically active cells.
Experiment [2] is described as follows: Cytotoxicity against MDR1 deficient human KB cells assessed as decrease in cell viability after 4 days by MTS assay. It counts as functional, cell-based. As to conditions: 96 h.
Experiment [3] is described as follows: Cytotoxicity against human MDA-MB-361/DYT2 cells assessed as decrease in cell viability after 4 days by MTS assay. It counts as functional, cell-based. As to conditions: MDA-MB-361, 96 h.
In the next experiment the test system is KB. The experiment in a line: Resistance ratio of IC50 for human KB 8.5 cells expressing MDR1 to IC50 for MDR1 deficient human KB cells. The class given is functional.
The nature of experiment [4]: Cytotoxicity against human KB 8.5 cells expressing MDR1 assessed as decrease in cell viability after 4 days by MTS assay. The class given is functional, cell-based. The conditions noted are these: KB 8.5, 96 h.

By IC50 is commonly meant the concentration needed to halve the response being measured. With `CC[C@H](C)[C@H](NC(=O)[C@@]1(C)CCCN1C)C(=O)N(C)[C@H](C[C@@H](OC(C)=O)c1nc(C(=O)NC(CO)Cc2ccccc2)cs1)C(C)C` (mixture of isomers), the concentration for half-maximal inhibition (IC50) in experiment [1] amounted to 29.1 nM; in experiment [2], 18 nM; in experiment [3], 16.5 nM; in experiment [4] it was 69.2 nM. The “Ratio IC50” value in the experiment with KB is listed as 4.

Values taken from ChEMBL document CHEMBL3862032, “Design, Synthesis, and Cytotoxic Evaluation of Novel Tubulysin Analogues as ADC Payloads” (ACS Med Chem Lett, 2016).
